Laboratory results taken from paper PMC4431183 (2015).

Experiments:
[1] = tested on: HteloDNA (DNA, G4) GGGTTAGGGTTAGGGTTAGGG; test: visible absorbance titration at 424 nm; details: 100 mM K+, 10 mM Mg2+; 50 mM MES-LiOH pH 7.0, 25 °C; 1.0 µM TMPyP4
[2] = tested on: dsDNA (DNA, duplex) AGAAGAGAAAGA/TCTTTCTCTTCT; test: visible absorbance titration at 424 nm; details: 100 mM K+, 10 mM Mg2+; 50 mM MES-LiOH pH 7.0, 25 °C; 1.0 µM TMPyP4
[3] = tested on: dsDNA (DNA, duplex) AGAAGAGAAAGA/TCTTTCTCTTCT; test: visible absorbance titration at 405 nm; details: 100 mM K+, 10 mM Mg2+, 2 mM Na+; 50 mM MES-LiOH pH 7.0, 2 mM NaOH, 25 °C; 12.5 µM hemin; 0–250 µM dsDNA, change too small for Ka
[4] = tested on: HteloDNA (DNA, G4) GGGTTAGGGTTAGGGTTAGGG; test: visible absorbance titration at 405 nm; details: 100 mM K+, 10 mM Mg2+, 2 mM Na+; 50 mM MES-LiOH pH 7.0, 2 mM NaOH, 25 °C; 12.5 µM hemin

Ka [1] | Ka [2] | binding [3] | Ka [4] | Compound
(1.2 ± 0.1) × 10^6 M^−1 | (1.8 ± 0.6) × 10^5 M^−1 |  |  | C[n+]1ccc(-c2c3nc(c(-c4cc[n+](C)cc4)c4ccc([nH]4)c(-c4cc[n+](C)cc4)c4nc(c(-c5cc[n+](C)cc5)c5ccc2[nH]5)C=C4)C=C3)cc1
 |  | weak | (5.5 ± 3.1) × 10^4 M^−1 | C=CC1=C(C)C2=Cc3c(C=C)c(C)c4[n]3[Fe]([Cl])[n]3c(c(C)c(CCC(=O)O)c3=CC3=NC(=C4)C(C)=C3CCC(=O)O)=CC1=N2
